{
  "source": "patent US12018014B2",
  "about": "“Pyrrole-substituted indolone derivative or pharmaceutically acceptable salts thereof, and preparation method therefor and application thereof” (SUZHOU GENHOUSE PHARMACEUTICAL CO., LTD., priority 2018, dated 2024)",
  "key": {"[1]": {"system": "human MV-4-11 cell strain", "experiment": "MTS in vitro antiproliferative activity", "format": "cell-based", "conditions": "MV4-11, 72 hours, read-out: IC50, in vitro proliferation of human MV-4-11 cell strain", "method": "The human acute leukemia cell MV-4-11 is an Flt-3 mutant cell strain. The MTS method was used to determine the in vitro antiproliferative activity of the compound against MV-4-11 (derived from ATCC): trypsinizing the cells in the logarithmic growth phase, counting them, resuspending an appropriate number of the cells in the culture solution, adding the culture solution to the 96-well plate by 150 μL per well, and culturing it overnight. After that, 50 μL of 4-fold serially diluted test compound or control culture solution was added to each well, and cultured for 72 hours. The culture solution was drained, and 120 μL of MTS detection solution (100 μL of fresh culture medium and 20 μL of MTS solution) was added to each well, and incubated at 37° C., and the OD490 value was read. Graphpad Prism5 software was used to analyze and process the data to obtain IC50."}, "KDR (VEGFR2)": {"biological_target": "KDR (VEGFR2) (Homo sapiens (Human), UniProt P35968)", "experiment": "HTRF in vitro tyrosine kinase inhibition", "format": "biochemical", "conditions": "ATP 120 μM, read-out: IC50 against KDR", "method": "(§1) The in vitro inhibitory activity of the compounds on tyrosine kinase was measured by HTRF (Homogeneous Time-Resolved Fluorescence) method.\n(§2) The compounds were serially diluted with DMSO in a 96-well plate into 8 solutions of different concentrations with 100 times the final concentration. Then a buffer solution, which was prepared by adding 5 mM MgCl2 and 1 mM DTT to 1-fold Enzymetic buffer provided by the kit, was diluted in a 96-well plate into a solution with 5 times the final concentration.\n(§3) The diluted compounds were added to a 384-well plate, respectively, and double wells were provided for each concentration. Then 0.25 ng of kinase was added per well. At the same time, negative and positive wells were provided, and the well to which 5% DMSO of the same volume was added was taken as control. […] Preincubation was carried out for 10 minutes at room temperature. A substrate with a final concentration of 1 μM and ATP with a final concentration of 120 μM were added, and incubated at room temperature for 90 minutes. Then, a fluorescent acceptor (XL665 labeled streptavidin) with a final concentration of 0.0625 μM and 1-fold fluorescent donor (Europium cryptate labeled TK antibody) with a final concentration of 0.0625 μM were added, and incubated at room temperature for 60 minutes. The plates were read by a microplate reader under the conditions of λex=330 nm, λem=620 nm and λem=665 nm. A ratio between the reading at 665 nm and the reading at 620 nm was calculated, and the inhibition rate was calculated according to this ratio."}, "FLT3 D835Y": {"biological_target": "FLT3 D835Y (Homo sapiens (Human), UniProt P36888, D835Y)", "experiment": "HTRF in vitro tyrosine kinase inhibition", "format": "biochemical", "conditions": "ATP 120 μM, read-out: IC50 against FLT3 D835Y", "method": "as §1, §2, §3"}, "RET": {"biological_target": "RET (Homo sapiens (Human), UniProt P07949)", "sequence (P07949 29-1114, species assumed)": "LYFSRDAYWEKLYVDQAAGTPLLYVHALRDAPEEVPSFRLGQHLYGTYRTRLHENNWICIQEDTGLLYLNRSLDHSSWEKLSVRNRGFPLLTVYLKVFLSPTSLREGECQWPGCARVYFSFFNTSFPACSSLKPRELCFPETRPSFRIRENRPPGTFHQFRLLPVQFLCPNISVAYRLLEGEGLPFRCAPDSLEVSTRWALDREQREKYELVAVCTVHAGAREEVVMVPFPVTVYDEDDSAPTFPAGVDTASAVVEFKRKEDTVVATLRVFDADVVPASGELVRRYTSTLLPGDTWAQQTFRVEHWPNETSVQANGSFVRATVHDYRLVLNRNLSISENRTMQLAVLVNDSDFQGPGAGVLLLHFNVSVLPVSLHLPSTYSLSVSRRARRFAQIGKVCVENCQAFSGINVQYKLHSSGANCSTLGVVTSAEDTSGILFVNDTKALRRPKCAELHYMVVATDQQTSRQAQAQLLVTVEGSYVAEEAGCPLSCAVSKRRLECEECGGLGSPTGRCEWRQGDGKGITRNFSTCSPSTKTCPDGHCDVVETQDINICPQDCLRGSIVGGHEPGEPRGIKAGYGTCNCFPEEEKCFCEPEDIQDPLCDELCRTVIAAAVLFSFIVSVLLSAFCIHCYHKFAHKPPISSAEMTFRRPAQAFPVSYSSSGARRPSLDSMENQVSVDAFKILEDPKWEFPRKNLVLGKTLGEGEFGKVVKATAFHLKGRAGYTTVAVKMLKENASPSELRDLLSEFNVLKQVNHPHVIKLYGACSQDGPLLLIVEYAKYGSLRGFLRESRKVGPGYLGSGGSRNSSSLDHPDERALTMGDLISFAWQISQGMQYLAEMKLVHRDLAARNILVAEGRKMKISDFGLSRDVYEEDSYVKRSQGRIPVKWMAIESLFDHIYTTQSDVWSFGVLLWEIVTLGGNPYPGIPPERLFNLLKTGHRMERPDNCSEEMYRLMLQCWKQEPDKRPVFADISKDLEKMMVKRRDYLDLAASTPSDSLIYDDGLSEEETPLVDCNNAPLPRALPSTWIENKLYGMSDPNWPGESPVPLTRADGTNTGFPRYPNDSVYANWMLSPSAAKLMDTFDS", "experiment": "HTRF in vitro tyrosine kinase inhibition", "format": "biochemical", "conditions": "ATP 120 μM, read-out: IC50 against RET", "method": "as §1, §2, §3"}, "ALK": {"biological_target": "ALK (Homo sapiens (Human), UniProt Q9UM73)", "experiment": "HTRF in vitro tyrosine kinase inhibition", "format": "biochemical", "conditions": "ATP 120 μM, read-out: IC50 against ALK", "method": "as §1, §2, §3"}, "FLT3": {"biological_target": "FLT3 (Homo sapiens (Human), UniProt P36888)", "experiment": "HTRF in vitro tyrosine kinase inhibition", "format": "biochemical", "conditions": "ATP 120 μM, read-out: IC50 against FLT3", "method": "as §1, §2, §3"}, "FGFR1": {"biological_target": "FGFR1 (Homo sapiens (Human), UniProt P11362)", "sequence (P11362 22-822, species assumed)": "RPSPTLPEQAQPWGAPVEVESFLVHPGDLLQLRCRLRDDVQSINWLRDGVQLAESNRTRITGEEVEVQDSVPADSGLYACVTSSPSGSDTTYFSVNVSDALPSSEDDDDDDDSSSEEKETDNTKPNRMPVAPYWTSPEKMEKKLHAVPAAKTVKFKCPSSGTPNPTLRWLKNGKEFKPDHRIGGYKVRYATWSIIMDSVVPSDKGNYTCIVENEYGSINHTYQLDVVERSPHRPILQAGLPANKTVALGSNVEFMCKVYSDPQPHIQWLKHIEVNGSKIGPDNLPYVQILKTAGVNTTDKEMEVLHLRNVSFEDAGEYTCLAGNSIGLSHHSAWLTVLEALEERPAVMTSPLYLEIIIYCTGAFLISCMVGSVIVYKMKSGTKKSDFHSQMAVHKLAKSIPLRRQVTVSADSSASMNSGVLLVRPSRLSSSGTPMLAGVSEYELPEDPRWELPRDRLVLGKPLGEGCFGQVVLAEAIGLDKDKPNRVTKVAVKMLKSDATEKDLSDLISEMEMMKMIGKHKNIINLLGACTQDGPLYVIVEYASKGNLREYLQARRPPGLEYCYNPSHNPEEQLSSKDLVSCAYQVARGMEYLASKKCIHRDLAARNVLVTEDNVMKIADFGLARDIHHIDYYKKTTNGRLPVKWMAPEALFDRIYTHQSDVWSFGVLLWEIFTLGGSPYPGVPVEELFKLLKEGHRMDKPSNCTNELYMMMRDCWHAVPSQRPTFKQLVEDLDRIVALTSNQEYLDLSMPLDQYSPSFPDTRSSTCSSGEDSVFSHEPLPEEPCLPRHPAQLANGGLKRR", "experiment": "HTRF in vitro tyrosine kinase inhibition", "format": "biochemical", "conditions": "ATP 120 μM, read-out: IC50 against FGFR1", "method": "as §1, §2, §3"}, "FLT3-ITD": {"biological_target": "FLT3-ITD (Homo sapiens, UniProt P36888, ITD)", "experiment": "HTRF in vitro tyrosine kinase inhibition", "format": "biochemical", "method": "as §1, §2, §3"}, "PDGFRβ": {"biological_target": "PDGFRβ (Homo sapiens (Human), UniProt P09619)", "sequence (P09619 33-1106, species assumed)": "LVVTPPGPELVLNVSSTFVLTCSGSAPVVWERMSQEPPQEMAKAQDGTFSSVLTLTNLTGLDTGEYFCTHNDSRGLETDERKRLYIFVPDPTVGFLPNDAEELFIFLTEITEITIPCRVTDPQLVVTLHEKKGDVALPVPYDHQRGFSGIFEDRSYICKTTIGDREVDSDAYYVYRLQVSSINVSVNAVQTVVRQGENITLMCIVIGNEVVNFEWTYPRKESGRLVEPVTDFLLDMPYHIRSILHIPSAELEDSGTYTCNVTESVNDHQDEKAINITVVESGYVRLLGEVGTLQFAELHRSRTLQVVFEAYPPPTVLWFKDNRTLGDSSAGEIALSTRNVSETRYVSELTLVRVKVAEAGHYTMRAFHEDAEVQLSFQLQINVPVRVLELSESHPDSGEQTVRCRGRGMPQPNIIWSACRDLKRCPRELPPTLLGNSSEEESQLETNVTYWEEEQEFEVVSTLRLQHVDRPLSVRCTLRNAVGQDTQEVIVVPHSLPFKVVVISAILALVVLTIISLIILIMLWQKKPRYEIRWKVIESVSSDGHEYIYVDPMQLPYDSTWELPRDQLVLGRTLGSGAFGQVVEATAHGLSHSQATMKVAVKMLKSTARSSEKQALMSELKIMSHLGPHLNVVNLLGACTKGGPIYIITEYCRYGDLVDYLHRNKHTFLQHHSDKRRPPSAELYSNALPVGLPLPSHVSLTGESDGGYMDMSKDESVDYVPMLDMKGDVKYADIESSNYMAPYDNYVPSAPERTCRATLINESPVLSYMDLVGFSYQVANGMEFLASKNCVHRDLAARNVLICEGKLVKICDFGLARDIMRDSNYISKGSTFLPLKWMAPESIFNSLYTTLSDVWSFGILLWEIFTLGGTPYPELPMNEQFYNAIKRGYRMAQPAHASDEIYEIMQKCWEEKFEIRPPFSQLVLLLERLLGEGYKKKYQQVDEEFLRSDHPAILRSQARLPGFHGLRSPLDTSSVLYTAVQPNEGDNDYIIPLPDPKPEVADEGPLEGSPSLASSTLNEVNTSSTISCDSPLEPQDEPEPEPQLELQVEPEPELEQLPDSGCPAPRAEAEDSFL", "experiment": "HTRF in vitro tyrosine kinase inhibition", "format": "biochemical", "conditions": "ATP 120 μM, read-out: IC50 against PDGFRβ", "method": "as §1, §2, §3"}, "c-Kit": {"biological_target": "c-Kit (Homo sapiens (Human), UniProt P10721)", "sequence (P10721 26-976)": "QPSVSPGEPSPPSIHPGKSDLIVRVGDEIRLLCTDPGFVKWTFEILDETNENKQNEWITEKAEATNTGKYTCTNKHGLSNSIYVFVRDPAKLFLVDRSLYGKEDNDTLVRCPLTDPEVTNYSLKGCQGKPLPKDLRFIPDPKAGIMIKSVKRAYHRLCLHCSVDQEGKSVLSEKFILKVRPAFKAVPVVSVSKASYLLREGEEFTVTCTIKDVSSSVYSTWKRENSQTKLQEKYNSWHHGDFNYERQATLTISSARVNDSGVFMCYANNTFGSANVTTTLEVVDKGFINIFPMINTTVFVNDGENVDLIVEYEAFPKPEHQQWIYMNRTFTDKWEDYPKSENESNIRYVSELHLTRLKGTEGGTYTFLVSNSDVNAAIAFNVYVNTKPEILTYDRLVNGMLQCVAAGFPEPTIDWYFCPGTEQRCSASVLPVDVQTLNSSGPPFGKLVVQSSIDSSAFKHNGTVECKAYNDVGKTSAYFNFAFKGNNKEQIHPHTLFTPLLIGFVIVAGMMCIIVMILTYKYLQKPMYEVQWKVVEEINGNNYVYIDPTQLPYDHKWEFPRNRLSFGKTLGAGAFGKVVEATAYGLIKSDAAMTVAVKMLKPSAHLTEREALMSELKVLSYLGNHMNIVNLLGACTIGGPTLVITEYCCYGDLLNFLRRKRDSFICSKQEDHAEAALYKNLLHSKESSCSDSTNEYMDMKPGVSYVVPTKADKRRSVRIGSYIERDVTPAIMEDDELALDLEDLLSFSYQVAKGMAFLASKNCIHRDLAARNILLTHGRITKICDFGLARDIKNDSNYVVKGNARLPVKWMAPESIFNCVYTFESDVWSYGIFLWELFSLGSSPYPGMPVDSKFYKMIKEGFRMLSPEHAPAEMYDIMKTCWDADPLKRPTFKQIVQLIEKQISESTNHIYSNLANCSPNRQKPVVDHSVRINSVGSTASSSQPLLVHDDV", "experiment": "HTRF in vitro tyrosine kinase inhibition", "format": "biochemical", "conditions": "ATP 120 μM, read-out: IC50 against c-Kit", "method": "as §1, §2, §3"}, "[2]": {"system": "MV-4-11 transplanted tumor", "experiment": "MV-4-11 subcutaneously transplanted tumor in nude mice", "format": "in vivo, Balb/c nude mice", "conditions": "for Average volume of tumor d15: d15 (start of administration); for Average volume of tumor d15 / Average volume of tumor d36: mean ± S.E, n=6; for Average volume of tumor d36 / anti-tumor effect (in words): 21 days", "text": "The formula of calculating the tumor volume (TV) is TV=½×a×b^2, where a represents the long diameter of the tumor and b represents the short diameter of the tumor."}, "[3]": {"conditions": "29 AML patients, single dose 50 mg to 350 mg; cited from earlier work"}, "[4]": {"experiment": "Toxicity and animal's weight in MV-4-11 nude mouse study", "conditions": "80 mg/kg intragastric, 21 days", "method": "MV-4-11 cells (FLT3-ITD mutant human acute biphenotypic myeloid leukemia cell strain, ATCC) were cultured and expanded in vitro, and the cells in the logarithmic growth phase were collected and resuspended in a serum-free EMEM culture solution, and the cell suspension was injected subcutaneously with a syringe into the armpit of the front right limb of male Balb/c nude mice."}, "[5]": {"system": "relapsed or refractory AML", "conditions": "cited from earlier work"}, "[6]": {"system": "MV-4-11 (FLT3-ITD) xenograft tumor", "conditions": "oral 20 mg/kg/d; cited from earlier work"}, "FLT3 phosphorylation": {"system": "FLT3 phosphorylation", "conditions": "dose of no less than 200 mg; cited from earlier work"}, "[7]": {"conditions": "10 mg/kg intragastric once a day"}, "[8]": {"conditions": "80 mg/kg intragastric once a day"}},
  "note": "Marks after values point to notes of the source that are not given here.",
  "data": [
    {"smiles": "Cc1[nH]c(/C=C2\\C(=O)Nc3ccc(F)cc32)c(C)c1NC(=O)N1CCN(C)CC1", "note": "[Compound 2]", "values": [
      {"measurement": "IC50", "setting": "[1]", "value": 178, "unit": "nM"}
    ]},
    {"smiles": "CCN1CCN(C(=O)Nc2c(C)[nH]c(/C=C3\\C(=O)Nc4ccc(F)cc43)c2C)CC1", "note": "[Compound 3]", "values": [
      {"measurement": "IC50", "setting": "[1]", "value": 138, "unit": "nM"}
    ]},
    {"smiles": "CNC1CCN(C(=O)Nc2c(C)[nH]c(/C=C3\\C(=O)Nc4ccc(F)cc43)c2C)CC1.Cl", "note": "[Compound 5]", "values": [
      {"measurement": "IC50", "setting": "KDR (VEGFR2)", "value": 891, "unit": "nM"},
      {"measurement": "IC50", "setting": "FLT3 D835Y", "value": 17.3, "unit": "nM"},
      {"measurement": "IC50", "setting": "RET", "value": 110, "unit": "nM"},
      {"measurement": "IC50", "setting": "ALK", "value": 4900, "unit": "nM"},
      {"measurement": "IC50", "setting": "FLT3", "value": 8.8, "unit": "nM"},
      {"measurement": "IC50", "setting": "FGFR1", "value": 2340, "unit": "nM"},
      {"measurement": "IC50", "setting": "FLT3-ITD", "value": "< 1.5", "unit": "nM"},
      {"measurement": "IC50", "setting": "PDGFRβ", "value": 190, "unit": "nM"},
      {"measurement": "IC50", "setting": "c-Kit", "value": 286, "unit": "nM"},
      {"measurement": "Average volume of tumor d15", "setting": "[2]; 2.5 mg/kg group", "value": "167.76 ± 11.65", "unit": "mm^3"},
      {"measurement": "Average volume of tumor d36", "setting": "[2]; 2.5 mg/kg intragastric once a day, hydrochloride", "value": "359.18 ± 49.62** mm^3"},
      {"measurement": "anti-tumor effect (in words)", "setting": "[2]; 2.5 mg/kg intragastric", "value": "notable inhibition on the growth of the transplanted tumor"},
      {"measurement": "Average volume of tumor d15", "setting": "[2]; 5 mg/kg group", "value": "167.69 ± 11.70", "unit": "mm^3"},
      {"measurement": "Average volume of tumor d36", "setting": "[2]; 5 mg/kg intragastric once a day, hydrochloride", "value": "34.71 ± 4.32** mm^3"},
      {"measurement": "Average volume of tumor d15", "setting": "[2]; 10 mg/kg group", "value": "167.75 ± 11.59", "unit": "mm^3"},
      {"measurement": "Average volume of tumor d36", "setting": "[2]; [7]", "value": "28.41 ± 3.38** mm^3"},
      {"measurement": "Average volume of tumor d15", "setting": "[2]; 80 mg/kg group", "value": "167.79 ± 13.04", "unit": "mm^3"},
      {"measurement": "Average volume of tumor d36", "setting": "[2]; [8]", "value": "19.60 ± 4.21** mm^3"},
      {"measurement": "Average volume of tumor d15", "setting": "[2]; 160 mg/kg group", "value": "167.59 ± 11.93", "unit": "mm^3"},
      {"measurement": "Average volume of tumor d36", "setting": "[2]; 160 mg/kg intragastric once a day, hydrochloride", "value": "20.74 ± 1.38** mm^3"},
      {"measurement": "anti-tumor effect (in words)", "setting": "[2]; dose of no less than 5 mg/kg intragastric", "value": "the transplanted tumor subsided"},
      {"measurement": "IC50", "setting": "[1]", "value": 66, "unit": "nM"}
    ]},
    {"smiles": "Cc1[nH]c(/C=C2\\C(=O)Nc3ccc(F)cc32)c(C)c1NC(=O)NC1CCN(C)CC1", "note": "[Compound 7]", "values": [
      {"measurement": "IC50", "setting": "[1]", "value": 82.2, "unit": "nM"}
    ]},
    {"smiles": "CCN(CC)CCNC(=O)c1c(C)[nH]c(/C=C2\\C(=O)Nc3ccc(F)cc32)c1C", "note": "[Sunitinib]", "values": [
      {"measurement": "patients with drug-related adverse reactions", "setting": "[3]", "value": 31, "unit": "%"},
      {"measurement": "Average volume of tumor d15", "setting": "[2]; 10 mg/kg group", "value": "167.64 ± 12.88", "unit": "mm^3"},
      {"measurement": "Average volume of tumor d36", "setting": "[2]; [7]", "value": "178.93 ± 13.89** mm^3"},
      {"measurement": "Average volume of tumor d15", "setting": "[2]; 80 mg/kg group", "value": "167.62 ± 13.27", "unit": "mm^3"},
      {"measurement": "Average volume of tumor d36", "setting": "[2]; [8]", "value": "22.17 ± 1.95** mm^3"},
      {"measurement": "animal's weight (in words)", "setting": "[4]", "value": "decreased significantly"},
      {"measurement": "toxic reaction (in words)", "setting": "[5]; 75 mg group", "value": "grade 4 dose-limiting fatigue and hypertension"},
      {"measurement": "morphological reaction", "setting": "[5]; 16 patients, 50 or 75 mg·d^−1", "value": 1, "unit": "case"},
      {"measurement": "partial reaction (PR)", "setting": "[5]; 16 patients, 50 or 75 mg·d^−1", "value": 5, "unit": "cases"},
      {"measurement": "IC50", "setting": "[1]", "value": 74.3, "unit": "nM"},
      {"measurement": "tumor inhibitory effect (in words)", "setting": "[6]", "value": "significant tumor inhibitory effect"},
      {"measurement": "patients with strong inhibitory effect on FLT3 phosphorylation", "setting": "FLT3 phosphorylation", "value": "more than 50%"}
    ]}
  ]
}
